Data: US20160136160A1, “METHOD FOR PREVENTING AND/OR TREATING CHRONIC TRAUMATIC ENCEPHALOPATHY-II” (priority 2013, published 2016)

Tested on: tau phosphorylation
Assay: Tau phosphorylation after concussive injury in the rat (immunohistology for phosphorylated tau)
Type: in vivo
Details: rat concussion model; 1 mg/kg intravenously at 30 minutes after induction of injury; assessed at 3 day time point
Excerpt: Note that concussive injury in the rat causes extensive tau phosphorylation (B) by 3 days after the concussive event compared to non-injured animals (A).
Having established that hyperphosphorylated tau accumulates perivascularly following concussive injury, we used an animal model of concussion to investigate whether concussion causes perivascular release of substance P. We developed a rodent model of concussion to replicate the concussive event (Donkin et al., 2004, 7th International Neurotrauma Symposium, pp 75-78, Medimond Publishers, Bologna, Italy) and subsequently determined whether substance P was released after such an event. There was a clear increase in brain perivascular substance P immunoreactivity after the concussive event (FIG. 2).
Having shown that mechanical injury causes release of substance P after concussive injury, we then investigated whether a compound of formula (I) reduces tau hyperphosphorylation after concussive injury. […] Note that concussive injury in the rat causes extensive tau phosphorylation (B) by 3 days after the concussive event compared to non-injured animals (A). […] Thus, administration of a compound of formula (I″) prevents tau hyperphosphorylation and thus prevents the development of CTE.

For `Cc1ccccc1-c1cc(N2CCN(C)CC2)ncc1C(=O)N(C)Cc1cc(C(F)(F)F)cc(C(F)(F)F)c1` [formula (I″)], the “effect on tau phosphorylation after concussive injury” value was “almost complete inhibition of tau phosphorylation”.
